Experimental data reported in patent US10828303B2, “Composition comprising combination of TRH analog with arundic acid, and pharmaceutically acceptable salt of arundic acid” (Brivention Pharmaceutical (Shanghai) Inc., priority 2016, dated 2020).

Assays:
reactive astrocytes = conditions: Patent Literature 2; cited from earlier work
[1] = Body weight changes in four-vessel occlusion rats; type: in vivo, rat; conditions: for Body weight, Day 7 / Body weight, Day 14 / Body weight, Day 21 / Body weight, Day 28 / Body weight, Day 0: Mean ± S.E.; for Body weight, Day 7 / Body weight, Day 14 / Body weight, Day 21 / Body weight, Day 28: 4-VO rats, oral daily: arundic acid 30, taltirelin 10, combination 10+3 mg/kg/day; for Body weight, Day 0: before administration, one week after 4-VO surgery, groups later given arundic acid 30, taltirelin 10, combination 10+3 mg/kg/day; for Body weight change in words: compared with Group 2 (control), until day 28, arundic acid 30, taltirelin 10, combination 10+3 mg/kg/day
Method: 7-week-old (body weight: 200 to 240 g) male Crl: Wistar rats were used for an experiment after acclimation for 1 week or more. During the experimental period, the rats were raised in an animal room maintained at a room temperature of 23±1° C. and a humidity of 55±5%, and illuminated for 12 hours (6:30-18:30); with ad libitum access to food (Oriental Yeast, CRF-1) and water.
Arundic acid ((R)-(−)-2-propyloctanoic acid: Lot No. CS04818-503, M.W.186.29, specific gravity: 0.908), which is an astrocyte function-improving agent, used in this test is a product synthesized by Chemical Soft Co., Ltd. Taltirelin hydrate (hereinafter referred to as taltirelin, M.W.463.47: N-[(4S)-1-methyl-2,6-dioxohexahydropyrimidine-4-carbonyl]-L-histidyl-L-prolinamide (Lot No. N16P)), which is a ataxia-improving agent, used in this test is a product purchased from Matrix Scientific. When arundic acid was to be administered at a dose of 30 mg/kg/5 mL, 1.61 mL of 1N NaOH was added to 300 mg (306 μL) of arundic acid to dissolve the arundic acid, and 48.084 mL of water or 0.5% CMC (carboxymethyl cellulose) was added to the resulting solution to make a total volume of 50 mL. In the experiment, a 10-fold concentrated arundic acid solution was prepared and adjusted for the concentration before use. When taltirelin was to be administered at a dose of 3 mg/kg or 10 mg/kg, taltirelin was dissolved in distilled water in a volume of 5 ml/kg. The test drug(s) were orally administered for 28 days (including Saturdays, Sundays, and public holidays), starting from 1 week after preparation of four-vessel occlusion models.
Five groups of rats (4 to 6 rats per group) were used. The details are as follows. Group 1 is a group that was not subjected to four-vessel occlusion. Groups 2 to 5 are groups that were subjected to four-vessel occlusion.
A vertebral artery cauterization surgery was performed in accordance with the method of Pulsinelli & Brierley (Pulsinelli, W. A. and Brierley, J. B.: Stroke 10, 267, 1979). More specifically, the rats anesthetized with Nem-ravona (registered trademark) and Butal (registered trademark) were fixed in the prone position to a brain stereotaxic apparatus, and the dorsal cervical skin and muscle layer were incised to expose the first cervical vertebra. The tips of the tweezers of a bipolar coagulator (Mizuho Ikakogyo Co., Ltd.; MICROID) were inserted into the alar foramina on both sides of the first cervical vertebra, and the vertebral artery running upward toward the cerebral base was bilaterally cut off by electrocauterization. The skin was then sutured. Subsequently, the rats were fixed again in the supine position to an experimental surgical table, and the ventral cervical skin was incised. After the bilateral common carotid arteries were separated from surrounding tissues and silk thread was looped around the arteries, the skin was sutured. After completion of the surgery, the rats were returned to a cage and observed. No behavioral abnormality was confirmed.
Twenty-four hours after vertebral artery cauterization by the above method, the rats under isoflurane inhalation anesthesia were fixed in the supine position for immobilization before common carotid artery ligation on the following day. The ventral cervical skin was incised again to expose bilateral common carotid arteries. First, the right-side common carotid artery was occluded with an artery clamp or Mosquito hemostat forceps (both forceps were covered with a silicone tube to reduce stimulus to the blood vessel wall). After about 60 seconds, the left-side common carotid artery was occluded in the same manner. Since righting reflex (RR) of rats during bilateral common carotid artery occlusion, i.e., rats with brain ischemia, was lost, immobilization in the supine-position seemed unnecessary. However, sudden movements, such as walking-like motions of four limbs or lateral turning, were observed. […]

[2] = test system: rats with anoxia-induced amnesia; conditions: Non-patent Literature 1; cited from earlier work
[3] = test system: patients with Alzheimer's disease or patients with cerebrovascular dementia; conditions: reported in literature; cited from earlier work
[4] = test system: rats with lesioned bilateral regions including the ventral globus pallidus, substantia innominata, and preoptic area (BFs); conditions: Non-patent Literature 1; cited from earlier work

Row | SMILES | GABAA receptor responsiveness (reactive astrocytes) | Body weight, Day 7 [1] [g] | Body weight, Day 14 [1] [g] | Body weight, Day 21 [1] [g] | Body weight, Day 28 [1] [g] | Body weight, Day 0 [1] [g] | Body weight change in words [1] | Memory retrieval, one-trial passive avoidance learning test [2] | Improvement effect compared with TRH [3] | Memory retrieval, active avoidance learning test [4]
1 | CCCCCC[C@@H](CCC)C(=O)O [Arundic acid, (R)-(−)-2-propyloctanoic acid] | GABAA receptor responsiveness is recovered | 255.5 ± 5.1 | 272.6 ± 7.4 | 288.0 ± 7.1 | 308.5 ± 5.0 | 228.7 ± 4.9 | favorable body weight increase |  |  | 
2 | CN1C(=O)C[C@@H](C(=O)N[C@@H](Cc2c[nH]cn2)C(=O)N2CCC[C@H]2C(N)=O)NC1=O [Taltirelin, N-[(4S)-1-methyl-2,6-dioxohexahydropyrimidine-4-carbonyl]-L-histidyl-L-prolinamide] |  | 256.6 ± 8.7 | 272.3 ± 10.3 | 291.3 ± 12.0 | 307.2 ± 12.2 | 228.6 ± 4.5 | favorable body weight increase | improve memory retrieval | higher improvement effect thereon than TRH | improve memory retrieval
